Marks after values point to notes of the source that are not given here.
Conditions: pH 2.7

Structure (SMILES) | Log P
CCNC(=O)C(C#N)=C(NC(C)c1ccncn1)c1cccnc1Cl (stereo not shown) [Compound 1118] | 1.62^[a]
CC#CC(C)NC(=C(C#N)C(=O)NCC)c1cccnc1Cl (stereo not shown) [Compound 1119] | 2.5^[a]
CCNC(=O)C(C#N)=C(NCC(C)c1nccs1)c1cccnc1Cl (stereo not shown) [Compound 1120] | 2.14^[a]
CCOC(=O)C(C#N)=C(NC1CCCCC1C)c1cn(C)nc1C(F)F (stereo not shown) [Compound 1122] | 3.6^[a]
CCOC(=O)C(C#N)=C(NC1CCC1)c1cn(C)nc1C(F)F [Compound 1123] | 2.73^[a]
CCOC(=O)C(C#N)=C(NC1CC1)c1cn(C)nc1C(F)F [Compound 1124] | 2.35^[a]
CCCCC(C)NC(=C(C#N)C(=O)OCC)c1cn(C)nc1C(F)F (stereo not shown) [Compound 1125] | 3.58^[a]
CCOC(=O)C(C#N)=C(NC[Si](C)(C)C)c1cn(C)nc1C(F)F [Compound 1126] | 3.35^[a]
C=CCNC(=C(C#N)C(=O)OCC)c1cn(C)nc1C(F)F [Compound 1127] | 2.35^[a]
C#CCNC(=C(C#N)C(=O)OCC)c1cn(C)nc1C(F)F [Compound 1128] | 2.13^[a]
CCOC(=O)C(C#N)=C(NC(CC(C)C)C(=O)OCC)c1cn(C)nc1C(F)F (stereo not shown) [Compound 1129] | 3.53^[a]
CCOC(=O)C(C#N)=C(NC1CC1C)c1cn(C)nc1C(F)F (stereo not shown) [Compound 1130] | 2.68^[a]
CCOC(=O)C(C#N)=C(NC1C2CCCCC21)c1cn(C)nc1C(F)F (stereo not shown) [Compound 1131] | 3.44^[a]
CCOC(=O)C(C#N)=C(NC1(C#N)CC1)c1cn(C)nc1C(F)F [Compound 1132] | 2.1^[a]
CCOC(=O)C(C#N)=C(NC(C)C1CCC1)c1cn(C)nc1C(F)F (stereo not shown) [Compound 1133] | 3.33^[a]
CCOC(=O)C(C#N)=C(NC(C)C1CC2CCC1C2)c1cn(C)nc1C(F)F (stereo not shown) [Compound 1134] | 4.03^[a]
CCOC(=O)C(C#N)=C(NC(C)COCC(C)(C)C)c1cn(C)nc1C(F)F (stereo not shown) [Compound 1135] | 4.08^[a]
CCOC(=O)C(C#N)=C(NC(C)CC1CC1)c1cn(C)nc1C(F)F (stereo not shown) [Compound 1136] | 3.23^[a]
CCOC(=O)C(C#N)=C(NC(C(=O)NC)c1ccccc1)c1cn(C)nc1C(F)F (stereo not shown) [Compound 1137] | 2.27^[a]
CCOC(=O)C(C#N)=C(NC(C)CC(=O)Nc1ccccc1C)c1cn(C)nc1C(F)F (stereo not shown) [Compound 1138] | 2.68^[a]
CCOC(=O)CC(C)NC(=C(C#N)C(=O)OCC)c1cn(C)nc1C(F)F (stereo not shown) [Compound 1139] | 2.66^[a]
CCOC(=O)C(C#N)=C(NC(C(=O)OC)c1ccccc1)c1cn(C)nc1C(F)F (stereo not shown) [Compound 1140] | 2.94^[a]

Structure (SMILES) | Log P
CCOC(=O)C(C#N)=C(NC(C)C1CC=CCC1)c1cn(C)nc1C(F)F (stereo not shown) [Compound 1141] | 3.62^[a]
CC#CC(C)NC(=C(C#N)C(=O)OCC)c1cn(C)nc1C(F)F (stereo not shown) [Compound 1142] | 2.8^[a]
CC#CC1(NC(=C(C#N)C(=O)OCC)c2cn(C)nc2C(F)F)CCCC1 [Compound 1143] | 3.39^[a]
CCOC(=O)C(C#N)=C(NC1CC2CCC1C2)c1cn(C)nc1C(F)F (stereo not shown) [Compound 1144] | 3.46^[a]
CCOC(=O)C(C#N)=C(NC1CC1CC)c1cn(C)nc1C(F)F (stereo not shown) [Compound 1146] | 3.04^[a]
CCOC(=O)C(C#N)=C(NC1CC1C(F)(F)F)c1cn(C)nc1C(F)F (stereo not shown) [Compound 1147] | 2.75^[a]
CCOC(=O)C(C#N)=C(NC1CC1(C)C)c1cn(C)nc1C(F)F (stereo not shown) [Compound 1148] | 3^[a]
CCOC(=O)C(C#N)=C(NC(C)c1ccc(F)cc1)c1cccnc1Cl (stereo not shown) [Compound 1149] | 3.51^[a]
CCOC(=O)C(C#N)=C(NC(C)c1ccc(C)cc1)c1cccnc1Cl (stereo not shown) [Compound 1150] | 3.87^[a]
CCOC(=O)C(C#N)=C(NC(C)c1ccccc1)c1cccnc1Cl (stereo not shown) [Compound 1151] | 3.48^[a]
CCOC(=O)C(C#N)=C(NC(C)c1cccc(Cl)c1)c1cccnc1Cl (stereo not shown) [Compound 1152] | 3.83^[a]
CCOC(=O)C(C#N)=C(Nc1ccc(OC)cc1)c1cccnc1Cl [Compound 1153] | 2.98^[a]
CCOC(=O)C(C#N)=C(Nc1ccc(C(C)C)cc1)c1cccnc1Cl [Compound 1154] | 4.08^[a]
CCOC(=O)C(C#N)=C(NC(C)COc1ccccc1C)c1cccnc1Cl (stereo not shown) [Compound 1155] | 4.01^[a]
CCOC(=O)C(C#N)=C(NC(C)CSc1ccc(Cl)cc1)c1cccnc1Cl (stereo not shown) [Compound 1156] | 4.08^[a]
CCOC(=O)C(C#N)=C(NC(C)CSc1cc(Cl)ccc1Cl)c1cccnc1Cl (stereo not shown) [Compound 1157] | 4.27^[a]
CCOC(=O)C(C#N)=C(NC(C)CSc1ccc(Cl)c(Cl)c1)c1cccnc1Cl (stereo not shown) [Compound 1158] | 4.41^[a]
CCOC(=O)C(C#N)=C(NC(C)C(C)Sc1ccccc1)c1cccnc1Cl (stereo not shown) [Compound 1159] | 4.13^[a]
CCOC(=O)C(C#N)=C(NC(C)COc1cccc(C(F)(F)F)c1)c1cccnc1Cl (stereo not shown) [Compound 1160] | 4.13^[a]
CCOC(=O)C(C#N)=C(NC(C)COc1ccccc1)c1cccnc1Cl (stereo not shown) [Compound 1161] | 3.58^[a]
CCOC(=O)C(C#N)=C(NC(C)COCc1ccccc1)c1cccnc1Cl (stereo not shown) [Compound 1162] | 3.71^[a]
CCOC(=O)C(C#N)=C(NC(C)COCc1ccccc1F)c1cccnc1Cl (stereo not shown) [Compound 1163] | 3.69^[a]

Structure (SMILES) | Log P
CCOC(=O)C(C#N)=C(NC(C)COc1ccccc1Cl)c1cccnc1Cl (stereo not shown) [Compound 1164] | 3.78^[a]
CCOC(=O)C(C#N)=C(NC(C)COc1ccc(C)cc1)c1cccnc1Cl (stereo not shown) [Compound 1165] | 3.94^[a]
CCOC(=O)C(C#N)=C(NC(C)COc1ccc(F)cc1)c1cccnc1Cl (stereo not shown) [Compound 1166] | 3.62^[a]
CCOC(=O)C(C#N)=C(NC(C)CCc1ccccc1)c1cccnc1Cl (stereo not shown) [Compound 1167] | 3.92^[a]
CCOC(=O)C(C#N)=C(Nc1ccccc1OC(C)C)c1cccnc1Cl [Compound 1168] | 3.8^[a]
CCOC(=O)C(C#N)=C(Nc1ccc(OC(F)F)cc1)c1cccnc1Cl [Compound 1169] | 3.19^[a]
CCOC(=O)C(C#N)=C(Nc1ccc(SC)cc1)c1cccnc1Cl [Compound 1170] | 3.37^[a]
CCOC(=O)C(C#N)=C(NCc1ccccc1SC)c1cccnc1Cl [Compound 1171] | 3.37^[a]
CCOC(=O)C(C#N)=C(NC(C)COCc1ccccc1Cl)c1cccnc1Cl (stereo not shown) [Compound 1172] | 4.06^[a]
CCOC(=O)C(C#N)=C(NC(C)COc1cccc(OC)c1)c1cccnc1Cl (stereo not shown) [Compound 1173] | 3.58^[a]
CCOC(=O)C(C#N)=C(NC(C)CC)c1cccnc1Cl (stereo not shown) [Compound 1174] | 3^[a]
CCCCCNC(=C(C#N)C(=O)OCC)c1cccnc1Cl [Compound 1175] | 3.53^[a]
C=CCCCC(C=C)NC(=C(C#N)C(=O)OCC)c1cccnc1Cl (stereo not shown) [Compound 1176] | 4.01^[a]
CCOC(=O)C(C#N)=C(NC(C)C1CC2CCC1C2)c1cccnc1Cl (stereo not shown) [Compound 1177] | 4.39^[a]
CCOC(=O)C(C#N)=C(NC(C)COCC(C)(C)C)c1cccnc1Cl (stereo not shown) [Compound 1178] | 4.34^[a]
CCOC(=O)C(C#N)=C(NC(C)COc1c(C)cccc1C)c1cccnc1Cl (stereo not shown) [Compound 1180] | 4.26^[a]
C#CC(C)NC(=C(C#N)C(=O)OCC)c1cccnc1Cl (stereo not shown) [Compound 1181] | 2.66^[a]
CCOC(=O)C(C#N)=C(NC(C)C1(Cl)CC1)c1cccnc1Cl (stereo not shown) [Compound 1182] | 3.33^[a]
CCOC(=O)C(C#N)=C(NCCOC)c1cccnc1Cl [Compound 1183] | 2.17^[a]
CCOC(=O)C(C#N)=C(NCCCCO)c1cccnc1Cl [Compound 1184] | 1.75^[a]
CCOC(=O)C(C#N)=C(NCCC(C)C)c1cccnc1Cl [Compound 1185] | 3.44^[a]
CCOC(=O)C(C#N)=C(NC1CCC1)c1cccnc1Cl [Compound 1186] | 2.92^[a]

Structure (SMILES) | Log P
CCOC(=O)C(C#N)=C(NC(C)CCCC(C)C)c1cccnc1Cl (stereo not shown) [Compound 1187] | 4.62^[a]
CCCCCC(C)NC(=C(C#N)C(=O)OCC)c1cccnc1Cl (stereo not shown) [Compound 1188] | 4.26^[a]
CCOC(=O)C(C#N)=C(NC1CC1CC)c1cccnc1Cl (stereo not shown) [Compound 1190] | 3.23^[a]
CCOC(=O)C(C#N)=C(NC(C)C1CCC1)c1cccnc1Cl (stereo not shown) [Compound 1191] | 3.55^[a]
CCOC(=O)C(C#N)=C(NC(C)CC(=O)Nc1ccccc1C)c1cccnc1Cl (stereo not shown) [Compound 1192] | 2.8^[a]
CCOC(=O)C(C#N)=C(NC(C)C(=O)Nc1ccc2ccccc2c1)c1cccnc1Cl (stereo not shown) [Compound 1193] | 3.51^[a]
CCOC(=O)C(C#N)=C(NC(C)C(=O)OCC)c1cccnc1Cl (stereo not shown) [Compound 1194] | 2.82^[a]
CCOC(=O)C(C#N)=C(NC(C(=O)OC)c1ccccc1)c1cccnc1Cl (stereo not shown) [Compound 1195] | 3.08^[a]
CCOC(=O)C(C#N)=C(NC(CC(C)C)C(=O)OCC)c1cccnc1Cl (stereo not shown) [Compound 1196] | 3.89^[a]
C=CC(COCc1ccccc1)NC(=C(C#N)C(=O)OCC)c1cccnc1Cl (stereo not shown) [Compound 1197] | 3.8^[a]
CC#CC(C)NC(=C(C#N)C(=O)OCC)c1cccnc1Cl (stereo not shown) [Compound 1198] | 3.02^[a]
CCNC(=O)C(C#N)=C(NC(C)C(C)C)c1cccnc1C#N (stereo not shown) [Compound 1199] | 2.64^[a]
CCNC(=O)C(C#N)=C(NC(C)C(C)C)c1ccnc(Cl)c1Cl (stereo not shown) [Compound 1200] | 3.57^[a]
CCNC(=O)C(C#N)=C(NC(C)c1ccccn1)c1ccnc(Cl)c1Cl (stereo not shown) [Compound 1201] | 2.53^[a]
CCOC(=O)C(C#N)=C(NC(C)C(C)C)c1cn(C)nc1I (stereo not shown) [Compound 1202] | 3.22^[a]
CCOC(=O)C(C#N)=C(NC(C)C(C)C)c1cn(C)nc1C (stereo not shown) [Compound 1203] | 2.8^[a]
CCOC(=O)C(C#N)=C(NC(C)c1ccccn1)c1cn(C)nc1C (stereo not shown) [Compound 1204] | 1.99^[a]
CCOC(=O)C(C#N)=C(NC(C)C(C)C)c1cn(C)nc1CC (stereo not shown) [Compound 1205] | 3.13^[a]
CCOC(=O)C(C#N)=C(NC(C)c1ccccn1)c1cn(C)nc1CC (stereo not shown) [Compound 1206] | 2.25^[a]

Reference: patent US8476197B2, “Aminopropenoates as fungicides” (priority 2009, dated 2013)
